This is an account of results in article PMC8550792, “Evolution of kinase polypharmacology across HSP90 drug discovery” (Cell Chemical Biology, 2021).

Molecules are shown by their SMILES.

Holding throughout (assay): biochemical
Format in all cases: biochemical

Experiment [1] deals with T1, 382 unique human kinases (Homo sapiens, UniProt P48730).
T1 construct: purchased Reaction Biology (HotSpot contract assay)
The settings on record: CK1d, 10 uM; for remaining activity at 10 µM: read-out: % Enzyme Activity (relative to DMSO controls).

Experiment [2] concerns the target T2, 382 unique human kinases (Homo sapiens, UniProt P08581).
T2 construct: purchased Reaction Biology (HotSpot contract assay)
The settings on record: kinase c-MET, compound 10 uM; for remaining activity at 10 µM: read-out: % Enzyme Activity (relative to DMSO controls).

Experiment [3] addresses T3, 382 unique human kinases (Homo sapiens, UniProt Q8IWQ3).
T3 construct: purchased Reaction Biology (HotSpot contract assay)
T3 sequence (Q8IWQ3 1-736): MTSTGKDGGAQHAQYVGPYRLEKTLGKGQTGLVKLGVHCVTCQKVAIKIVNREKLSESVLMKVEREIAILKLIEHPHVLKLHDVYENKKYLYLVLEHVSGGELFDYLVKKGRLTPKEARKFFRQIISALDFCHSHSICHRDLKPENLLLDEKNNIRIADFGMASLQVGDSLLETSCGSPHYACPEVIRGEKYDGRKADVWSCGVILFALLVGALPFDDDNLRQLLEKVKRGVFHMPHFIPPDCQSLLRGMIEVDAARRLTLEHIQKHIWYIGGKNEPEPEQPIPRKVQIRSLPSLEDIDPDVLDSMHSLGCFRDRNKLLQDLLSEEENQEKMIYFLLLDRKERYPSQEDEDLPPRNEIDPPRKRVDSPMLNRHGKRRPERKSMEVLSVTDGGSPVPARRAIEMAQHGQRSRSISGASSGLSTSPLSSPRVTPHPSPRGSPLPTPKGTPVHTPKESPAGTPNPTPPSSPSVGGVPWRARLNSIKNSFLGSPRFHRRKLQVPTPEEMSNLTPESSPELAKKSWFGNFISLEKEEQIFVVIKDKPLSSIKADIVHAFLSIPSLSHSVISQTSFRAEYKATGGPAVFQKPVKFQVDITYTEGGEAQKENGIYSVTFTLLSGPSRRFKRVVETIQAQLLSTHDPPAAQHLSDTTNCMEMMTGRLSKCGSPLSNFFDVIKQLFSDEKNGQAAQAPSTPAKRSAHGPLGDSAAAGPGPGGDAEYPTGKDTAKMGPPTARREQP
The settings on record: kinase BRSK2, compound 10 uM; for remaining activity at 10 µM: read-out: % Enzyme Activity (relative to DMSO controls).

In experiment [4] the target is T4, 382 unique human kinases (Homo sapiens, UniProt P21802, K641R).
T4 construct: purchased Reaction Biology (HotSpot contract assay)
T4 sequence (P21802 22-821 K641R): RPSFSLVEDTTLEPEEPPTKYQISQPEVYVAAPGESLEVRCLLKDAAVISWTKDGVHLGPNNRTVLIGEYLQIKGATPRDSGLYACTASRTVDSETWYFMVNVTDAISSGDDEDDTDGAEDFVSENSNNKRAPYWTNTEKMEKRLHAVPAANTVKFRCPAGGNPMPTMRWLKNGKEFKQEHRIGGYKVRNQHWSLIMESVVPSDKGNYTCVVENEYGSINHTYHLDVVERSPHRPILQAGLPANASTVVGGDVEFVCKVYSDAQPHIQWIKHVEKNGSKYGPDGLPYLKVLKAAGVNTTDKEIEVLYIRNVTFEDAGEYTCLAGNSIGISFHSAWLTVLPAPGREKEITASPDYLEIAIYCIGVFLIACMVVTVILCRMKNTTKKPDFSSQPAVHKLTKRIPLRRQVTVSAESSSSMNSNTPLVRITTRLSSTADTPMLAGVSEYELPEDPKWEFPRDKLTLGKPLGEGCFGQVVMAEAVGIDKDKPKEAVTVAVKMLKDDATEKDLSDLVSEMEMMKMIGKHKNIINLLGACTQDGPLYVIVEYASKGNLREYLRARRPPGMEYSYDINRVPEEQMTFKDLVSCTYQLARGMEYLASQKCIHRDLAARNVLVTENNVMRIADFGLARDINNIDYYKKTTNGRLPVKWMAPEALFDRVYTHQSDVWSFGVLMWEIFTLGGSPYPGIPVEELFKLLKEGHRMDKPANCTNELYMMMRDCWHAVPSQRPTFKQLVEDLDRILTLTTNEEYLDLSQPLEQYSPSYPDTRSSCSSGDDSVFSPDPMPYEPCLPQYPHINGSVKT
The settings on record: FGFR2 (K641R), 10 uM; for remaining activity at 10 µM: read-out: % Enzyme Activity (relative to DMSO controls).

In experiment [5] the target is T5, 382 unique human kinases (Homo sapiens, UniProt P54764).
T5 construct: purchased Reaction Biology (HotSpot contract assay)
T5 sequence (P54764 20-986): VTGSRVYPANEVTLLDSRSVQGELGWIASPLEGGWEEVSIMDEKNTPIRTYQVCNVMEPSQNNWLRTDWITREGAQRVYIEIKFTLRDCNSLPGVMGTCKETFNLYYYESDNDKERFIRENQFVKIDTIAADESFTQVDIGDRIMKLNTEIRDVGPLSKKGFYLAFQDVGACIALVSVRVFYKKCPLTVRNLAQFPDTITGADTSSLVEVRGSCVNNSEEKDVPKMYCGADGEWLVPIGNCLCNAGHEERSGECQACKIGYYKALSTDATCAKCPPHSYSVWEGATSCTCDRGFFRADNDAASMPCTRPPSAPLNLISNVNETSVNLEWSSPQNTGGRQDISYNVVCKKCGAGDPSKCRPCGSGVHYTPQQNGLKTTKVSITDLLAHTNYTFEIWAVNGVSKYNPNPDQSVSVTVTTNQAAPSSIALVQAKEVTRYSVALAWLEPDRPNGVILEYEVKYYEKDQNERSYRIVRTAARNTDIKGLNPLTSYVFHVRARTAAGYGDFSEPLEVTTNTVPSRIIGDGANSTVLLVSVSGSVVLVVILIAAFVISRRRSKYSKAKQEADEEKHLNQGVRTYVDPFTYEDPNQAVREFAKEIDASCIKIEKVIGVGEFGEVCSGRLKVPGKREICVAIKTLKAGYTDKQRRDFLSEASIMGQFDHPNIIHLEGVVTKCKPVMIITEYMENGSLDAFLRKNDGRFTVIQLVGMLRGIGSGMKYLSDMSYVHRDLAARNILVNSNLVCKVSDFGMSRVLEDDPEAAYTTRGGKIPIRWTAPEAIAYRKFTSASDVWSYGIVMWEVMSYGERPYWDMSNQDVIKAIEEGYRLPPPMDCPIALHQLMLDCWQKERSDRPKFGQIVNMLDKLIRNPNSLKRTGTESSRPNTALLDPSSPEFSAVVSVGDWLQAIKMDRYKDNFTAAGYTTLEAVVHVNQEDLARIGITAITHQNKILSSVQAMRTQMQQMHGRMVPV
The settings on record: EPHA4, [ATP] 30 µM, compound 10 uM; for remaining activity at 10 µM: read-out: % Enzyme Activity (relative to DMSO controls).

In experiment [6] the target is T6, 382 unique human kinases (Homo sapiens, UniProt Q16620).
T6 construct: purchased Reaction Biology (HotSpot contract assay)
T6 sequence (Q16620 32-822): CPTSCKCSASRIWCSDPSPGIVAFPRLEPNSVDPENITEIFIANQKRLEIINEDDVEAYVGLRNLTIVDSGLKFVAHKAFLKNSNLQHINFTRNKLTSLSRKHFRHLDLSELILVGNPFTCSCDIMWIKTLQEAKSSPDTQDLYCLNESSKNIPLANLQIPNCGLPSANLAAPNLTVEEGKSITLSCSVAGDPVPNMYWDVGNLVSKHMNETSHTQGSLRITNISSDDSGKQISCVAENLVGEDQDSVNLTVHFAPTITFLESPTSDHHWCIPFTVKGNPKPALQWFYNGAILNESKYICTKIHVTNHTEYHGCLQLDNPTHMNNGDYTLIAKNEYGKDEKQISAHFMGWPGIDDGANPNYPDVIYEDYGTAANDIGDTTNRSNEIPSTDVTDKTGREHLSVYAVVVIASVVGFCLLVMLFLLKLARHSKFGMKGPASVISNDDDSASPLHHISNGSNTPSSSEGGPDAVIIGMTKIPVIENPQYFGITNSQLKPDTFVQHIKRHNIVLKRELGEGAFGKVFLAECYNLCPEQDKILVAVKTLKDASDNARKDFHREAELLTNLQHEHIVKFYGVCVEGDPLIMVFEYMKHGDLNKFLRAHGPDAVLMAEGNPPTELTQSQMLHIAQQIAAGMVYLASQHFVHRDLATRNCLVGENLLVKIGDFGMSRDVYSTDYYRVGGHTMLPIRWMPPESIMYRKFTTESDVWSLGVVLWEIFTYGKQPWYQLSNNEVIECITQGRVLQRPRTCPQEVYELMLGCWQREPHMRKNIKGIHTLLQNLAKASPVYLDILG
The settings on record: TRKB, [ATP] 50 µM, compound 10 uM; for remaining activity at 10 µM: read-out: % Enzyme Activity (relative to DMSO controls).

The target in experiment [7] is T7, 382 unique human kinases (Homo sapiens, UniProt O75914).
T7 construct: purchased Reaction Biology (HotSpot contract assay)
The settings on record: PAK3, 10 uM; for remaining activity at 10 µM: read-out: % Enzyme Activity (relative to DMSO controls).

Experiment [8] deals with T8, 382 unique human kinases (Homo sapiens, UniProt Q08345).
T8 construct: purchased Reaction Biology (HotSpot contract assay)
T8 sequence (Q08345 19-913): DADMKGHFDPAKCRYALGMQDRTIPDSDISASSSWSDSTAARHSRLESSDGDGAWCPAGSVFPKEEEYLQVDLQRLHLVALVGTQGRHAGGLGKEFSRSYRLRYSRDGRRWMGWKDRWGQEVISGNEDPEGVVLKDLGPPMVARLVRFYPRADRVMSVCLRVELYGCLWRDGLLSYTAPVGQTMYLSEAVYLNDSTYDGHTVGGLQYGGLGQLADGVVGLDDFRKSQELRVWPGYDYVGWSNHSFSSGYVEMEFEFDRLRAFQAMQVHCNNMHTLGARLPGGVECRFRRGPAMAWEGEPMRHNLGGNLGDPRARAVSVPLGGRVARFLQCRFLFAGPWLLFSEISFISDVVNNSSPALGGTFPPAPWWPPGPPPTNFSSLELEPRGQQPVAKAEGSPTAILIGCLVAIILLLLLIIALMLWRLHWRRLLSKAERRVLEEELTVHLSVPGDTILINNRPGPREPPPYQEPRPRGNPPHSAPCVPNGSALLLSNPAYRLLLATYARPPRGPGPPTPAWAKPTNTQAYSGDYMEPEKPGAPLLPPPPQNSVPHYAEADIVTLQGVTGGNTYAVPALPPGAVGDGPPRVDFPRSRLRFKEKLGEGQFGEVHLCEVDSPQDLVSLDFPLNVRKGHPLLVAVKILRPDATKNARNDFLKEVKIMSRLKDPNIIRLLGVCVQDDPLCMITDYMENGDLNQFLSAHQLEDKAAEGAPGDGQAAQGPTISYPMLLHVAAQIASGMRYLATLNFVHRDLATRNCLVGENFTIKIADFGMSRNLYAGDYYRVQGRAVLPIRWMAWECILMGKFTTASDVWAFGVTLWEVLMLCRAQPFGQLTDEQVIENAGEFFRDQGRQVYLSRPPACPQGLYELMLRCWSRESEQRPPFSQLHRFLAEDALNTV
The settings on record: DDR1, [ATP] 100 µM.

Experiment [9] deals with T9, 382 unique human kinases (Homo sapiens, UniProt Q06187).
T9 construct: purchased Reaction Biology (HotSpot contract assay)
T9 sequence (Q06187 whole entry): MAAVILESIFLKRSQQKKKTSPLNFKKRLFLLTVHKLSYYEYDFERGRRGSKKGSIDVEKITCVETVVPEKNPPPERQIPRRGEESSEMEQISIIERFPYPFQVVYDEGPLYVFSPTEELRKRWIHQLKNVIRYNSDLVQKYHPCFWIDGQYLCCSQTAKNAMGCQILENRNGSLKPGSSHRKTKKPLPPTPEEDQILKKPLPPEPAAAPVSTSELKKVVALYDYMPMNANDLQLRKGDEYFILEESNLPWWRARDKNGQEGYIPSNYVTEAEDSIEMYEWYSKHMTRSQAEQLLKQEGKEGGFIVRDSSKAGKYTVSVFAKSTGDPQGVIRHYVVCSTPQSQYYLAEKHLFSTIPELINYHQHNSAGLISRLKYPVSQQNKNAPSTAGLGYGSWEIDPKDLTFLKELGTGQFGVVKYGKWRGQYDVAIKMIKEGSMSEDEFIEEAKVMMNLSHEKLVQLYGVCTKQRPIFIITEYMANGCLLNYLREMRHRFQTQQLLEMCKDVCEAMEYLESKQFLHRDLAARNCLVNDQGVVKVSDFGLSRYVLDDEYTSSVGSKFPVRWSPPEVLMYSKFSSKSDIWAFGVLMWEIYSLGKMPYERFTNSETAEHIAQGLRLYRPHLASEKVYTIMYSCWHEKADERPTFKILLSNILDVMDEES
The settings on record: BTK, [ATP] 50 µM, compound 10 uM; for remaining activity at 10 µM: read-out: % Enzyme Activity (relative to DMSO controls).

The target of experiment [10] is T10, 382 unique human kinases (Homo sapiens, UniProt P10721, V560G).
T10 construct: purchased Reaction Biology (HotSpot contract assay)
T10 sequence (P10721 26-976 V560G): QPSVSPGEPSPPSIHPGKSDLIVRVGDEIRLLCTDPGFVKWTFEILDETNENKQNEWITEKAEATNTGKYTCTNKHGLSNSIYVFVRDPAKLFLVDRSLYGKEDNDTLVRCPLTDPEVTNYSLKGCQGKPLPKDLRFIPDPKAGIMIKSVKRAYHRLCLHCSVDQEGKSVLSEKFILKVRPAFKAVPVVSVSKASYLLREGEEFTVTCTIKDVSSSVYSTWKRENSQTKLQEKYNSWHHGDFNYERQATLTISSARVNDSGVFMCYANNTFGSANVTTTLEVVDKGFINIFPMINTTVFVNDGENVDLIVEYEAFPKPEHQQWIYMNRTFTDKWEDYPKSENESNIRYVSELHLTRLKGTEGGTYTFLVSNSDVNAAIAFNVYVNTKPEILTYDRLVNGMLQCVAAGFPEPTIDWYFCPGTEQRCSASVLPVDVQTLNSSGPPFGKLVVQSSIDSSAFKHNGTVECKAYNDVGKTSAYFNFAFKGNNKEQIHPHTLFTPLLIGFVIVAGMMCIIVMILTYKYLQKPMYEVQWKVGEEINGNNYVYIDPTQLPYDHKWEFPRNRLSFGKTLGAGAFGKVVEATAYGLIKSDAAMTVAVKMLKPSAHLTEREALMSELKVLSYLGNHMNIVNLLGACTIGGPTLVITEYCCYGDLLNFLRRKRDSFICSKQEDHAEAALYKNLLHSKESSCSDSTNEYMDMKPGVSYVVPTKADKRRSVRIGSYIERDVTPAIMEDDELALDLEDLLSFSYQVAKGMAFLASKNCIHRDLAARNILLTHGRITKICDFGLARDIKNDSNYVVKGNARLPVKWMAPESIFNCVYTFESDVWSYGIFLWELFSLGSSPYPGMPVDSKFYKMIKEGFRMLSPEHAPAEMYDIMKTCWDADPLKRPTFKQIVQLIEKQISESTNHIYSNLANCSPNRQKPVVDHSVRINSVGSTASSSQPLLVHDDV
The settings on record: c-Kit (V560G), [ATP] 20 µM, compound 10 uM; for remaining activity at 10 µM: read-out: % Enzyme Activity (relative to DMSO controls).

Experiment [11] has as its target T11, 382 unique human kinases (Homo sapiens, UniProt Q16832, N456S).
T11 construct: purchased Reaction Biology (HotSpot contract assay)
T11 sequence (Q16832 22-855 N456S): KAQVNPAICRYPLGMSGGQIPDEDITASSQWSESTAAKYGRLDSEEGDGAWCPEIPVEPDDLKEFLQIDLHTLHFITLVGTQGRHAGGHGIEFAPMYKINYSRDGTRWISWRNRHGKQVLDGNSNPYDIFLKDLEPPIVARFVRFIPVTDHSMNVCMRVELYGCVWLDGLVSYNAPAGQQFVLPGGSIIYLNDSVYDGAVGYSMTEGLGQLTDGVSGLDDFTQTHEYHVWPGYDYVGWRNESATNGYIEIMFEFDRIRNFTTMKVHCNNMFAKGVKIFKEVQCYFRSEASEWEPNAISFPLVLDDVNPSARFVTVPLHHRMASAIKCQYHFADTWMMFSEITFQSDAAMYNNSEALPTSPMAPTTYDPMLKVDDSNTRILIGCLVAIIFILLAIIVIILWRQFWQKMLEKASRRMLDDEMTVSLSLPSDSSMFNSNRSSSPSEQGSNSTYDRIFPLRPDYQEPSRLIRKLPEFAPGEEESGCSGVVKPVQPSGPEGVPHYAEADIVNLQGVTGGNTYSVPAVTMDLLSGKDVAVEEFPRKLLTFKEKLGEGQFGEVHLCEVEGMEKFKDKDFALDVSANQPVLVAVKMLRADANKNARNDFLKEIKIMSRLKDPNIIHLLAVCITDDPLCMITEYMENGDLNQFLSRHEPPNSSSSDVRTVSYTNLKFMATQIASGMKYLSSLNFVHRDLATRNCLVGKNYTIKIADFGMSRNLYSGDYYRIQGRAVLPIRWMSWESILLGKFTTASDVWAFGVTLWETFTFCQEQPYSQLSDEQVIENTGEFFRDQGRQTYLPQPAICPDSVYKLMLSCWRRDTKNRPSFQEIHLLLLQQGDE
The settings on record: DDR2 (N456S), [ATP] 2.5 µM, compound 10 uM; for remaining activity at 10 µM: read-out: % Enzyme Activity (relative to DMSO controls).

Where [12] appears, read: compound 10 uM, read-out: % Enzyme Activity (relative to DMSO controls).

Turning to `CC(C)c1cc(-c2n[nH]c(=O)n2-c2ccc3c(ccn3C)c2)c(O)cc1O` [Ganetespib (STA9090)], the remaining activity at 10 µM at 382 unique human kinases [1] turned out to be 81.2%; on 382 unique human kinases [2], 82.2%; on 382 unique human kinases [3], 82.8%; on 382 unique human kinases [4] it was 78%.
Turning to `CC(C)c1cc(-c2n[nH]c(=O)n2-c2ccc3c(ccn3C)c2)c(O)cc1O` [Ganetespib], the remaining activity at 10 µM on 382 unique human kinases [5] was determined as 49%; at 382 unique human kinases [6] it was 21.5%; at 382 unique human kinases [7] it was 98.1%; on 382 unique human kinases [8] (setting [12]) it was 4.12%; at 382 unique human kinases [9] it was 56%; on 382 unique human kinases [10], 58.9%. Moreover, the remaining activity at 10 µM on 382 unique human kinases [11] was found to be 2.65%. On 382 unique human kinases [8] (compound 1 uM, read-out: % Enzyme Activity (relative to DMSO controls)), the remaining activity at 1 µM was found to be 8.59%.
Take `CCNC(=O)c1noc(-c2cc(C(C)C)c(O)cc2O)c1-c1ccc(CN2CCOCC2)cc1` [Luminespib (AUY-922)]: the “% Enzyme Activity (relative to DMSO controls)” value on 382 unique human kinases [1] worked out at 81.12%; at 382 unique human kinases [2], 99.56%; on 382 unique human kinases [3] it was 83.62%; at 382 unique human kinases [4], 98.16%. For the same compound, the remaining activity at 10 µM stood at 83.5% on 382 unique human kinases [1], 105% at 382 unique human kinases [2], 83.9% on 382 unique human kinases [3] and 98.4% on 382 unique human kinases [4].
`CCNC(=O)c1noc(-c2cc(C(C)C)c(O)cc2O)c1-c1ccc(CN2CCOCC2)cc1` [Luminespib]: the “% Enzyme Activity (relative to DMSO controls)” value stood at 90.78% on 382 unique human kinases [5]; 97.46% at 382 unique human kinases [6]; 107.82% at 382 unique human kinases [7]; 84.86% on 382 unique human kinases [8] (compound 10 uM); 74.40% at 382 unique human kinases [9]; 109.32% on 382 unique human kinases [10]. Further, the “% Enzyme Activity (relative to DMSO controls)” value on 382 unique human kinases [11] worked out at 85.24%. In addition, the remaining activity at 10 µM at 382 unique human kinases [5] is 91.1%; at 382 unique human kinases [6], 98.1%; on 382 unique human kinases [7], 108%; on 382 unique human kinases [8] (setting [12]), 85.9%; on 382 unique human kinases [9], 74.9%; on 382 unique human kinases [10] it was 111%. For the same compound, the remaining activity at 10 µM on 382 unique human kinases [11] stood at 90.4%.
